Experimental data reported in patent US20260209247A1, “Substituted Tricyclic Compounds” (Lupin Limited, priority 2019, published 2026).

Assays:
[1] = system: pERK after EGF stimulation in DLD1 cells; assay: ERK phosphorylation assay (alphascreen pERK); assay type: cell-based; conditions: Homo sapiens, DLD-1, 2 h compound, 200 ng/ml hEGF for 5 minutes, read-out: ERK phosphorylation inhibition IC50
Summary of the method: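 DLD1 cells pretreated with test compounds for 2 h, then stimulated with 200 ng/ml hEGF for 5 min. Lysates assayed by AlphaScreen SureFire for ERK1/2 p-T202/Y204, read after 2 h at 25–28 °C. % inhibition relative to the stimulated-minus-unstimulated vehicle window.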

[2] = target: T1, nucleotide exchange on hKRASG12C mediated by hSOS1 (Homo sapiens, UniProt Q07889); assay: Guanine nucleotide exchange assay (GNEA, HTRF); assay type: biochemical; conditions: HIS-hSOS1 564-1049aa mediated GTP loading onto GST-hKRASG12C 1-169aa, read-out: Guanine nucleotide exchange inhibition IC50
T1 construct: HIS-hSOS1, 564-1049aa mediated GTP loading onto GST-hKRASG12C; His (N); made in house
T1 sequence (Q07889 564-1049): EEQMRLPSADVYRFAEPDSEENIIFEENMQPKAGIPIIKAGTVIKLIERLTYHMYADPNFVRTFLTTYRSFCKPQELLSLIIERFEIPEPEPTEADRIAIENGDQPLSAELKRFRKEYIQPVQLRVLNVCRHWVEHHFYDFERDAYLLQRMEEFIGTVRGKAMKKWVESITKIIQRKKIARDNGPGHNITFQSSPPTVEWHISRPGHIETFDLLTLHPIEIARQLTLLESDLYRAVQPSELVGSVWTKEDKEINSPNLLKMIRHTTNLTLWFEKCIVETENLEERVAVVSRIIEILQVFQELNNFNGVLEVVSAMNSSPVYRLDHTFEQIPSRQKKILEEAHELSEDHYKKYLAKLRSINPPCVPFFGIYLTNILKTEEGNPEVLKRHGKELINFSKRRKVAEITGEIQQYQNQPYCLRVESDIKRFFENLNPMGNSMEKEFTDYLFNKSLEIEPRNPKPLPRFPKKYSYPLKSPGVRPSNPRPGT
Summary of the method: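 Compounds were pre-incubated 10 min at 20 °C with HIS-hSOS1 (564-1049aa) and EDA-GTP-DY-647P1 (working solution 10-50 nM and 200 nM) in pH 7.4 HEPES with NaCl, MgCl2, DTT, BSA and Igepal. GST-hKRASG12C (1-169aa, 25-125 nM working solution) plus anti-GST-Tb was added for 30-60 min at 20 °C. Percent inhibition came from the HTRF 665/620 nm ratio.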

[3] = target: T2, protein-protein interaction between hSOS1 and hKRASG12C (Homo sapiens, UniProt Q07889); assay: KRAS-SOS1 interaction assay (HTRF); assay type: binding; conditions: GST-hSOS1 564-1049aa, HIS-hKRASG12C, read-out: KRAS-SOS1 Interaction inhibition IC50
T2 construct: GST-hSOS1, 564-1049aa expressed and purified in-house
T2 sequence (Q07889 564-1049): T1 sequence (Q07889 564-1049)
Summary of the method: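 GST-hSOS1 (564-1049aa) at 10-50 nM working solution pre-incubated with compounds 10 min at 20° C in HEPES pH 7.4 buffer with EDTA, DTT, BSA and Igepal. HIS-hKRASG12C (100-300 nM working solution) added for 30-60 min, then anti-GST-d2/anti-HIS-Tb detection; percent inhibition from the 665/620 nm ratio.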

[4] = system: MIA PaCa-2 human pancreatic cancer xenograft; assay: MIA PaCa-2 xenograft efficacy study; assay type: in vivo; conditions: b.i.d., p.o., nude mice
Description: In vivo efficacy of compounds 68, 101b at a dose of 30 mg/kg, b.i.d., p.o. and compound 81 at a dose of 50 mg/kg, b.i.d., p.o., was evaluated in MIA PaCa-2 human pancreatic cancer xenograft model in nude mice.
MIA PaCa-2 tumor fragments were implanted subcutaneously in the right flank region of nude mice. Tumor-bearing mice were randomized once the tumors reached an average volume of ~141-142 mm^3 (tumor volume range 72-242 mm^3).
To assess the efficacy of compound 81, the tumor-bearing mice were randomized once the tumors reached an average volume of ~181-183 mm^3 (tumor volume range 73-251 mm^3). The mice were divided into the following groups (n=8/group): Vehicle control and compound 81 (50 mg/kg, b.i d., p.o.).

Structure (SMILES)	IC50 [1]	IC50 [2]	IC50 [3]	tumor growth inhibition ([4]; 30 mg/kg)	tumor growth inhibition ([4]; 50 mg/kg)
COC1(C)C(=O)N(C)c2cc3c(N[C@H](C)c4cccc(C(F)(F)C(C)(C)O)c4F)nc(C)nc3cc21 (single isomer, unassigned) [Compound 101b]	1 to 200 nM	1 to 30 nM	1 to 10 nM	65.71%	
Cc1nc(N[C@H](C)c2cccc(C(F)(F)C(C)(C)O)c2F)c2cc3c(cc2n1)C(C)(C)C(=O)N3C [Compound 68, (R)-4-((1-(3-(1,1-Difluoro-2-hydroxy-2-methylpropyl)-2-fluorophenyl)ethyl)amino)-2,6,8,8-tetramethyl-6,8-dihydro-7H-pyrrolo[2,3-g]quinazolin-7-one]	1 to 200 nM	1 to 30 nM	1 to 10 nM	63.82%	
Cc1nc(N[C@H](C)c2cccc(C(F)(F)C(C)(C)O)c2F)c2cc3c(cc2n1)N(C)C(=O)C3(C)C [Compound 81, (R)-4-((1-(3-(1,1-difluoro-2-hydroxy-2-methylpropyl)-2-fluorophenyl)ethyl)amino)-2,6,6,8-tetramethyl-6,8-dihydro-7H-pyrrolo[3,2-g]quinazolin-7-one]	1 to 200 nM	1 to 30 nM	1 to 10 nM		67.68%
Cc1nc(N[C@H](C)c2cc(N)cc(C(F)(F)F)c2)c2cc3c(cc2n1)C1(CCOCC1)C(=O)N3C [Compound 138, (R)-4′-((1-(3-amino-5-(trifluoromethyl)phenyl)ethyl)amino)-2′,6′-dimethyl-2,3,5,6-tetrahydrospiro[pyran-4,8′-pyrrolo[2,3-g]quinazolin]-7′(6′H)-one]	1 to 200 nM	31 to 130 nM	11 to 25 nM		
CCC1(OC)C(=O)N(C)c2cc3c(N[C@H](C)c4cc(N)cc(C(F)(F)F)c4)nc(C)nc3cc21 (stereo partly drawn) [Compound 139, (R & S)-4-(((R)-1-(3-amino-5-(trifluoromethyl)phenyl)ethyl)amino)-8-ethyl-8-methoxy-2,6-dimethyl-6,8-dihydro-7H-pyrrolo[2,3-g]quinazolin-7-one]	201 to 500 nM	31 to 130 nM	11 to 25 nM		
